Patent US20180003695A1, “METHOD FOR QUANTITATIVE MEASUREMENT OF GASTRIC ACIDITY USING 13C CARBONATE SALT” (priority 2010, published 2018)

Assays:
[1] = system: platelet aggregation by ADP stimulation; details: clopidogrel 10 mg/kg oral, ketoconazole 50 mg/kg oral 30 min before, blood 2 hours after clopidogrel
Text: Fasted rats (7 weeks old, female, SD rats) were used as experimental animals.

[2] = system: gastric acid secretion; assay: Correlation between enzyme activity of CYP2C19 and CYP3A4 and effect of omeprazole, 13C-CaCO3 expiration test; format: in vivo, rats; details: ketoconazole 50 mg/kg oral 30 min before omeprazole 3 mg/kg i.v.; 13C-CaCO3 100 μmol/kg oral 2 hours after omeprazole
Protocol: Fasted rats (7 weeks old, female, SD rats) were used as experimental animals. The rats were divided into an omeprazole administration group (n=3), a ketoconazole pre-treatment group (n=3), and a control group (n=3).
Expired air was then collected. […] Expired air was then collected.
The above expired air was used as test samples, and Δ^13C (‰) was measured with a mass spectrometer for expired air analysis (ABCA: manufactured by SerCon) from the concentration of ^13CO2 excreted in the expired air.

Row | SMILES | platelet aggregation inhibitory action of clopidogrel under ketoconazole pre-treatment [1] | Δ13C (‰) in the expired air after 13C-CaCO3, effect of ketoconazole pre-treatment before omeprazole [2]
1 | COC(=O)[C@H](c1ccccc1Cl)N1CCc2sccc2C1 [clopidogrel] | reduced | –
2 | CC(=O)N1CCN(c2ccc(OCC3COC(Cn4ccnc4)(c4ccc(Cl)cc4Cl)O3)cc2)CC1 (centres unmarked) [ketoconazole] | – | decreased
